Experimental data as given in ChEMBL document CHEMBL3217459, “3-Diarylethyne quinazolinones: a new class of senescence inducers” (Medchemcomm, 2013).
Activity calls are given as the source filed them. The calls are words filed in the database; no cut-off is given here.

How the values were obtained:
[1] = system: MCF7; experiment: Induction of senescence in human MCF7 cells expressing wild type p53 at 4 uM after 24 hrs by Western blot analysis; assay type: functional, cell-based
[2] = system: MCF7; experiment: Induction of senescence in human MCF7 cells assessed as blue colotation and adopted a flattened morphology with spread out cytoplasm at 4 uM after 72 hrs by SA-beta-gal assay; assay type: functional, cell-based
[3] = system: MCF7; experiment: Cell cycle arrest in human MCF7 cells assessed as accumulation at G2/M phase at 4 uM after 24 hrs using propidium iodide staining by FACS analysis (reference value: 19%); assay type: functional
[4] = system: MCF7; experiment: Cell cycle arrest in human MCF7 cells assessed as accumulation at S phase at 4 uM after 24 hrs using propidium iodide staining by FACS analysis (reference value: 11%); assay type: functional
[5] = system: MCF7; experiment: Cell cycle arrest in human MCF7 cells assessed as accumulation at G1 phase at 4 uM after 24 hrs using propidium iodide staining by FACS analysis (reference value: 70%); assay type: functional
[6] = Cytotoxicity against human MCF10A cells assessed as cell viability after 48 hrs by MTT assay; assay type: cell-based; conditions: MCF-10A
[7] = system: COLO 205; experiment: Cytotoxicity against human COLO205 cells assessed as cell viability after 48 hrs by MTT assay; assay type: functional, cell-based; conditions: COLO 205, 48 h
[8] = Cytotoxicity against human MIAPaCa2 cells assessed as cell viability after 48 hrs by MTT assay; assay type: functional, cell-based; conditions: MIA PaCa-2, 48 h
[9] = system: A549; experiment: Cytotoxicity against human A549 cells assessed as cell viability after 48 hrs by MTT assay; assay type: functional, cell-based; conditions: A549, 48 h
[10] = system: MDA-MB-231; experiment: Cytotoxicity against human MDA-MB-231 cells assessed as cell viability after 48 hrs by MTT assay; assay type: functional, cell-based; conditions: MDA-MB-231, 48 h
[11] = system: MCF7; experiment: Cytotoxicity against human MCF7 cells assessed as cell viability after 48 hrs by MTT assay; assay type: functional, cell-based; conditions: MCF7, 48 h
[12] = system: MCF7; experiment: Cytotoxicity against human MCF7 cells assessed as cell viability at 4 uM after 48 hrs by MTT assay; assay type: functional
[13] = system: MCF7; experiment: Cytotoxicity against human MCF7 cells assessed as cell viability at 2 uM after 48 hrs by MTT assay; assay type: functional
[14] = biological target: Telomerase reverse transcriptase (Homo sapiens) (UniProt O14746); experiment: Inhibition of telomerase activity in human MCF7 cells assessed as un-repairable DNA damage at 4 uM after 24 hrs; assay type: cell-based
[15] = system: MCF7; experiment: Induction of DNA damage in human MCF7 cells assessed as increase in gamma H2AX level measured at 4 uM after 24 hrs by Western blot analysis; assay type: functional, cell-based
[16] = system: MCF7; experiment: Induction of DNA damage in human MCF7 cells assessed as decrease in TRF2 level measured at 4 uM after 24 hrs by Western blot analysis; assay type: functional, cell-based
[17] = system: MCF7; experiment: Induction of DNA damage in human MCF7 cells assessed as increase in POT1 level measured at 4 uM after 24 hrs by Western blot analysis; assay type: functional, cell-based
[18] = system: MCF7; experiment: Induction of DNA damage in human MCF7 cells assessed as increase in TRF1 level measured at 4 uM after 24 hrs by Western blot analysis; assay type: functional, cell-based
[19] = system: HCT-116; experiment: Induction of senescence in human HCT116 cells assessed as increase in p16 expression at 4 uM after 24 hrs by Western blot analysis; assay type: functional, cell-based
[20] = system: SW116; experiment: Induction of senescence in human SW116 cells assessed as increase in p21 expression at 4 uM after 24 hrs by Western blot analysis; assay type: functional, cell-based
[21] = system: HCT-116; experiment: Induction of senescence in human HCT116 cells assessed as increase in p21 expression at 4 uM after 24 hrs by Western blot analysis; assay type: functional, cell-based
[22] = system: MCF7; experiment: Induction of senescence in human MCF7 cells assessed as decrease in SKP2 expression at 4 uM after 24 hrs by Western blot analysis; assay type: functional, cell-based
[23] = system: MCF7; experiment: Induction of senescence in human MCF7 cells assessed as increase in p16 expression at 4 uM after 24 hrs by Western blot analysis; assay type: functional, cell-based
[24] = system: MCF7; experiment: Induction of senescence in human MCF7 cells assessed as increase in p21 expression at 4 uM after 24 hrs by Western blot analysis; assay type: functional, cell-based
[25] = system: MCF7; experiment: Induction of senescence in human MCF7 cells assessed as increase in p53 expression at 4 uM after 24 hrs by Western blot analysis; assay type: functional, cell-based
[26] = system: MDA-MB-231; experiment: Induction of senescence in human MDA-MB-231 cells expressing mutant p53 at 4 uM after 24 hrs by Western blot analysis; assay type: functional, cell-based
[27] = biological target: Telomerase reverse transcriptase (Homo sapiens) (UniProt O14746); experiment: Inhibition of telomerase activity in human A549 cells at 4 uM after 24 hrs by TRAP eze XL telomerase assay
[28] = system: MCF7 (Homo sapiens); experiment: Induction of senescence in human MCF7 cells assessed as increase in p16 expression at 4 uM after 24 hrs by Western blot analysis

Telomerase reverse transcriptase (Homo sapiens), sequence (O14746 whole entry): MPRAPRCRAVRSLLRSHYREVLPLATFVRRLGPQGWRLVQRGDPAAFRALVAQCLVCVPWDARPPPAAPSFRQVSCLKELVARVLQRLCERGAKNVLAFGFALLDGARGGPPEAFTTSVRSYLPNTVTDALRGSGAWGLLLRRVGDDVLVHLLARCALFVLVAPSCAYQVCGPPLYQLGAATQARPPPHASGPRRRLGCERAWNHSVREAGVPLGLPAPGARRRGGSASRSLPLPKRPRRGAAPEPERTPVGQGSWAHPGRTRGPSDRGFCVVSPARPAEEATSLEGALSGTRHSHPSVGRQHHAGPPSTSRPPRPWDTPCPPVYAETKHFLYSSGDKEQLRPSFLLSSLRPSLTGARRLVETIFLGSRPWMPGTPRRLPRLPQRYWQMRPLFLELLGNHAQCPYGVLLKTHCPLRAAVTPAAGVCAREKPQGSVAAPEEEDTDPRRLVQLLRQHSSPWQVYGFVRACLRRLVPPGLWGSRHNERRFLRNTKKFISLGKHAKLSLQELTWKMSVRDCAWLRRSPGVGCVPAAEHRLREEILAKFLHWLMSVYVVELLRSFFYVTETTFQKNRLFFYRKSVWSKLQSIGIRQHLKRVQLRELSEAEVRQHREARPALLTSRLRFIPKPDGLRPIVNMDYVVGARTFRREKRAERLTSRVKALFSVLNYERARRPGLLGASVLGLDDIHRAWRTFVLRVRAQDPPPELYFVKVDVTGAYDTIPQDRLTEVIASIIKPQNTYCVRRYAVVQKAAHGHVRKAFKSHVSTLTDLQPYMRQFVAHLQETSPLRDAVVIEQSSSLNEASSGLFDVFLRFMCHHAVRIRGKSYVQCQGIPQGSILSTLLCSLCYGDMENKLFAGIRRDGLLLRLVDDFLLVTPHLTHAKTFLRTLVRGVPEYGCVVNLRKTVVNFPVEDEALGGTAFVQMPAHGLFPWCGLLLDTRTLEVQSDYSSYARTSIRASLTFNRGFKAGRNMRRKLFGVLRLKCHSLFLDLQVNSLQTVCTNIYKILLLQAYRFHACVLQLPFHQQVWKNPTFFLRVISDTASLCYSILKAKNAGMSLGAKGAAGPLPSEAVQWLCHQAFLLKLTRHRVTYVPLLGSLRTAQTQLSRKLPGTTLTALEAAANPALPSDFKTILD

Structure (SMILES) | Activity [1] | Activity [3] [%] | Activity [4] [%] | Activity [5] [%] | IC50 [6] [µM] | IC50 [7] [µM] | IC50 [8] [µM] | IC50 [9] [µM] | IC50 [10] [µM] | IC50 [11] [µM] | OD [12] | OD [13] | Activity [19] | Activity [20] | Activity [21] | inhibition [22] | Activity [23] | Activity [24] | Activity [25] | Activity [28] | also measured
Cc1cc(C#Cc2ccc(C(C)(C)C)cc2)ccc1-n1c(/C=C/c2c(Cl)cccc2Cl)nc2ccccc2c1=O | Active | 5 | 2 | 93 | 15 | 4.85 | 5.29 | 5.6 | 5.44 | 2.27 | 0.39 | 0.77 | Active | Active | Active | Active | Active | Active | Active | Active | Activity [2]: Active; inhibition [14]: Active; Activity [15]: Active; inhibition [16]: Active; Activity [17]: Active; Activity [18]: Active; Activity [26]: inactive; inhibition [27]: Active
Cc1cc(C#Cc2ccc(C(C)(C)C)cc2)ccc1-n1c(/C=C/c2ccnc3ccccc23)nc2ccccc2c1=O | Active | 4 | 2 | 94 | 28 | 5.44 | 5.21 | 5.87 | 5.44 | 2.45 | 0.24 | 0.59 | Active | Active | Active | Active | Active | Active | Active | Active | Activity [2]: Active; inhibition [14]: Active; Activity [15]: Active; inhibition [16]: Active; Activity [17]: Active; Activity [18]: Active; Activity [26]: inactive; inhibition [27]: Active
COc1cccc2c1C(=O)c1c(O)c3c(c(O)c1C2=O)C[C@@](O)(C(=O)CO)C[C@@H]3O[C@H]1C[C@H](N)[C@H](O)[C@H](C)O1 [DOXORUBICIN] | Active | 16 | 2 | 82 | 31 | 0.37 | 0.14 | 0.73 | 0.16 | 0.1 | – | – | Active | Active | Active | Active | Active | Active | Active | Active | Activity [26]: inactive
COc1ccc(/C=C/c2nc3ccccc3c(=O)n2-c2ccc(C#Cc3ccc(C(C)(C)C)cc3)cc2C)cc1O | – | 5 | 4 | 91 | 12 | 5.19 | 6.8 | 5.74 | 5.69 | 3.88 | 0.27 | 0.84 | Active | Active | Active | Active | Active | Active | Active | Active | inhibition [14]: Active; Activity [15]: Active; inhibition [16]: Active; Activity [17]: Active; Activity [18]: Active
